The results in this text go back to US7273880B2, “Selective NPY (Y5) antagonists” (H. Lunbeck A/S, priority 1999, dated 2007).

Structures can show the parent of a compound that is named as a salt.

The assay addresses T1, human Y5 receptor (hNPY-5) (Homo sapiens, UniProt Q15761).
T1 construct: expressed in transfected cells; host or cells: mouse fibroblast LM(tk-) cells, e.g. L-hY5-7 (ATCC CRL-11995)
T1 sequence (Q15761 1-445): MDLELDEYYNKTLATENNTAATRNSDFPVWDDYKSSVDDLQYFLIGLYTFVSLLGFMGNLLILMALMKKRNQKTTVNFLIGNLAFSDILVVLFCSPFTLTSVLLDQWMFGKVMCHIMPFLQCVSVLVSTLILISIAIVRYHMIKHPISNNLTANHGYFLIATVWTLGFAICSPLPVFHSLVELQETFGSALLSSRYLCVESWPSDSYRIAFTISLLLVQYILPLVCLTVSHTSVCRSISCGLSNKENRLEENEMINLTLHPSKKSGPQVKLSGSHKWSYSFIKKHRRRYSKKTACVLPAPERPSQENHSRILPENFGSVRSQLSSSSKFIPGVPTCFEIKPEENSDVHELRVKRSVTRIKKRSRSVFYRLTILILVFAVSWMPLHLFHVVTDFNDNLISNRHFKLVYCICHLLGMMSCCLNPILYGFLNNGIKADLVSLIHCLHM
The assay can be described thus: Radioligand binding to membranes, cloned human Y5 receptor. Particulars: cloned human NPY Y5 receptor, radioligand competition binding; Tables 1-3; read-out: Ki, nM hNPY-5. The protocol: Binding of the compounds of the present invention to human Y1, Y2, Y4, and Y5 receptors was evaluated using stably transfected 293 or LM(tk-) cells as described above. Stably transfected cell lines which may be used for binding assays include, for example, for the human Y1 receptor, 293-hY1-5 (deposited Jun. 4, 1996, under ATCC Accession No. CRL-12121), for the human Y2 receptor, 293-hY2-10 (deposited Jan. 27, 1994, under ATCC Accession No. CRL-11537), for the human Y4 receptor, L-hY4-3 (deposited Jan. 11, 1995, under ATCC Accession No. CRL-11779), and for human Y5 receptor, L-hY5-7 (deposited Nov. 15, 1995, under ATCC Accession No. CRL-11995). These cell lines were deposited with the American Type Culture Collection (ATCC), 10801 University Blvd., Manassas, Va. 20110-2209, U.S.A. under the provisions of the Budapest Treaty for the International Recognition of the Deposit of Microorganisms for the Purposes of Patent Procedure.
Membranes were harvested from COS-7 cells 48 hours after transient transfection. Adherent cells were washed twice in ice-cold phosphate buffered saline (138 mM NaCl, 8.1 mM Na2HPO4, 2.5 mM KCl, 1.2 mM KH2PO4, 0.9 mM CaCl2, 0.5 mM MgCl2, pH 7.4) and lysed by sonication in ice-cold sonication buffer (20 mM Tris-HCl, 5 mM EDTA, pH 7.7). Large particles and debris were cleared by low speed centrifugation (200×g, 5 min, 4° C.). Membranes were collected from the supernatant fraction by centrifugation (32,000×g, 18 min, 4° C.), washed with ice-cold hypotonic buffer, and collected again by centrifugation (32,000×g, 18 min, 4° C.). The final membrane pellet was resuspended by sonication into a small volume of ice-cold binding buffer (˜1 ml for every 5 plates: 10 mM NaCl, 20 mM HEPES, 0.22 mM KH2PO4, 1.26 mM CaCl2, 0.81 mM MgSO4, pH 7.4). Protein concentration was measured by the Bradford method (Bradford, 1976) using Bio-Rad Reagent, with bovine serum albumin as a standard. Membranes were held on ice for up to one hour and used fresh, or flash-frozen and stored in liquid nitrogen.
Membranes were prepared similarly from 293, LM(tk-), and NIH-3T3 cells. To prepare membranes from baculovirus infected cells, 2×10^7 Sf21 cells were grown in 150 mm tissue culture dishes and infected with a high-titer stock of hY5BB3. Cells were incubated for 2-4 days at 27° C., no CO2 before harvesting and membrane preparation as described above.
Membrane suspensions were diluted in binding buffer supplemented with 0.1% bovine serum albumin to yield an optimal membrane protein concentration so that ^125I-PYY (or alternative radioligand such as ^125I-NPY, ^125I-PYY3-36, or ^125I-[Leu^31Pro^34]PYY) bound by membranes in the assay was less than 10% of ^125I-PYY (or alternative radioligand) delivered to the sample (100,000 dpm/sample=0.08 nM for competition binding assays). ^125I-PYY (or alternative radioligand) and peptide competitors were also diluted to desired concentrations in supplemented binding buffer. Individual samples were then prepared in 96-well polypropylene microtiter plates by mixing 125I-PYY (25 μL) (or alternative radioligand), competing peptides or supplemented binding buffer (25 μL), and finally, membrane suspensions (200 μL). Samples were incubated in a 30° C. water bath with constant shaking for 120 min. Incubations were terminated by filtration over Whatman GF/C filters (pre-coated with 1% polyethyleneimine and air-dried before use), followed by washing with 5 mL of ice-cold binding buffer. Filter-trapped membranes were impregnated with MeltiLex solid scintillant (Wallac, Turku, Finland) and counted for ^125I in a Wallac Beta-Plate Reader. Alternatively, incubations were carried out in GF/C filter plates (pre-coated with 1% polyethyleneimine and air-dried before use), followed by vacuum filtration and three washes of 300 μL of ice-cold binding buffer. 50 μL of UltimaGold (Packard) scintillant were added and counted for ^125I in a Wallac MicroBeta Trilux. […]
A general note: Loss of bound radioactivity is the signal in a displacement assay; it reports binding, not function.
As for `CN(C)S(=O)(=O)NCCCCNc1nc2c(s1)CCCc1ccc(F)cc1-2` [Example 6, 1-Aza-9-fluoro-4,5-dihydro-2-(4-(dimethyl-aminosulfonyl-amino)butyl)amino-3-thia-benzo[e]-azulene], the Ki – broadly, a dissociation constant, usually derived from enzyme kinetics or from competition with a known ligand – is 3.1 nM.
The value for `COc1ccc(C)cc1S(=O)(=O)NCCOCCNc1nc2c(s1)CCCc1ccc(F)cc1-2` [Example 58, 1-Aza-9-fluoro-4,5-dihydro-2-{2-[2-(2-methoxy-5-methylphenyl)sulfonylamino]ethoxy}ethylamino-3-thia-benzo[e]azulene] was 3 nM.
To `CC(C)S(=O)(=O)N[C@H]1CC[C@H](CNc2nc3c(s2)CCCc2ccc(F)cc2-3)CC1` [Example 53, trans-1-Aza-9-fluoro-4,5-dihydro-2-{4-isopropyl-sulfonylamino}cyclohexylmethylamino-3-thia-benzo[e]-azulene] belongs 3.2 nM.
Regarding `COCCN(C=O)C[C@H]1CC[C@H](Nc2nc(-c3ccccc3OC)cs2)CC1` [Example 97], the Ki is 335 nM.
To `CN(C)S(=O)(=O)NCCCCCNc1nc2c(s1)CCCc1ccc(F)cc1-2` [Example 2, 1-Aza-9-fluoro-4,5-dihydro-2-{5-(dimethyl-aminosulfonyl-amino)pentyl}amino-3-thia-benzo[e]azulene] belongs 1.6 nM.
The value for `COc1ccc2c(c1)CCCc1sc(N[C@H]3CC[C@H](CNS(=O)(=O)N4CCOCC4)CC3)nc1-2` [Example 78, trans-N2-(4-(1-Morpholinylsulfonylaminomethyl)-cyclohexyl-8-methoxy-5,6-dihydro-4H-benzo[6,7]-cyclohepta[d][1,3]thiazol-2-amine hydrochloride] was 6 nM; that for `COCC(=O)NCc1ccc(Nc2nc3c(s2)CCCc2ccc(F)cc2-3)cc1` [Example 89, N1-{4-[(9-fluoro-5,6-dihydro-4H-benzo[6,7]cyclohepta-[d][1,3]thiazol-2-yl)amino]benzyl}-2-methoxyacetamide] was 9.2 nM.
The value for `CCCN(C=O)[C@H]1CC[C@H](CNc2nc3c(s2)CCOc2ccccc2-3)CC1` [Example 88, N-{4-[(4,5-Dihydrobenzo[2,3]oxepino[4,5-d][1,3]-thiazol-2-ylamino)methyl]cyclohexyl}-N-propyl-formamide] was 36 nM; that for `COc1ccc2c(c1)CCCc1sc(N[C@H]3CC[C@H](CNS(=O)(=O)C(C)C)CC3)nc1-2` [Example 73, trans-1-Aza-4,5-dihydro-2-(4-isopropylsulfonyl-aminomethyl)-cyclohexylamino-8-methoxy-3-thia-benzo[e]-azulene] was 8.7 nM.
For the compound `COCC(=O)N[C@H]1CC[C@H](CNc2nc3c(s2)CCOc2ccccc2-3)CC1` [Example 84, N1-{4-[(4,5-dihydrobenzo[2,3]oxepino[4,5-d][1,3]thiazol-2-ylamino)methyl]cyclohexyl}-2-methoxyacetamide], the inhibitory constant (Ki) is 40 nM.
In the case of `CC(C)S(=O)(=O)NCCOCCNc1nc2c(s1)CCCc1ccc(F)cc1-2` [Example 69, 1-Aza-9-fluoro-4,5-dihydro-2-(2-(2-isopropyl-sulfonylamino)-ethoxy)ethylamino-3-thia-benzo[e]-azulene], the Ki turned out to be 4.1 nM.
The value for `CC(=O)NC[C@H]1CC[C@H](Nc2nc3c(s2)CCCc2ccc(F)cc2-3)CC1` [Example 81, N1-({4-[(9-fluoro-5,6-dihydro-4H-benzo[6,7]-cyclohepta-[d][1,3]thiazol-2-yl)amino]cyclohexyl}-methyl)acetamide] was 62 nM.
The value for `CC(C)S(=O)(=O)NCCCCCNc1nc2c(s1)CCCc1ccc(F)cc1-2` [Example 13, 1-Aza-9-fluoro-4,5-dihydro-2-(5-isopropyl-sulfonylamino)-pentylamino-3-thia-benzo[e]azulene] was 132 nM.
Turning to `CN(C)S(=O)(=O)NC[C@H]1CC[C@H](CNc2nc3c(s2)CCSc2ccc(F)cc2-3)CC1` [Example 106], the inhibition constant Ki is 2.6 nM.
